{"source": "patent US9445596B2", "about": "“Small molecule compounds for the control of nematodes” (California Institute of Technology, priority 2011, dated 2016)", "key": {"P. pacificus": {"test_system": "P. pacificus", "assay": "Dauer formation assay", "format": "in vivo, Pristionchus pacificus", "settings": "synthetic samples; first assayed at 1 μM", "protocol": "Dauer formation assays were performed as described in Ogawa et al., Curr. Biol. 19:67-71 (2009), which is hereby incorporated by reference in its entirety, using heat- or kanamycin-killed E. coli OP50. Synthetic compounds were dissolved in ethanol (0.5 mM, stock solution) and combined with water to make a […] and subsequently added to 3 mL NGM-agar without peptone ([…], 0.3, 0.1 μM final concentrations)."}, "[1]": {"test_system": "P. pacificus strain RSB020", "assay": "Mouth-form dimorphism assay", "format": "in vivo, Pristionchus pacificus", "protocol": "Mouth-form dimorphism assays were performed using P. pacificus strain RSB020. The synthetic compounds dissolved in ethanol (0.5 mM) were diluted with water to make 100 μl solution and subsequently added to 3 mL NGM-agar (1 μM final concentration). The assay plates were seeded with 50 μl OP50 culture in LB medium and incubated overnight at 20° C. to allow bacterial growth. Each replicate included the progeny of two mothers, which were picked as adult hermaphrodites of a consistent age (carrying 4-6 eggs) and which were all from the same P. pacificus culture plate. Following the placement of mothers on assay plates, plates were kept at 20° C. for six days, such that the entire broods were adults at the time of screening. A random sample of 50 hermaphrodite progeny was screened per plate. All animals were screened by differential interference contrast (DIC) microscopy on a Zeiss Axiskop. The following discrete characters were used to discriminate eurystomatous from stenostomatous individuals, respectively: (1) claw-shaped vs. flint-shaped (i.e. dorsoventrally symmetrical) dorsal tooth; (2) presence vs. absence of a subventral tooth; (3) strongly vs. weakly sclerotized stomatal walls. No intermediate mouth-forms were observed. Experiments were conducted in triplicate for each treatment. In assays of responses to compounds of several concentrations (1, 0.3, 0.1, 0.03, 0.01 μM final concentrations), experiments were performed as described above, with the following modifications. To allow greater resolution of responses to lower concentrations, 60 randomly screened individuals in each of five replicates per concentration per compound were assayed. All concentration-curve experiments were performed in parallel using mothers picked randomly from the same two source populations. To prepare large numbers of individual mothers for these experiments, source populations were established from virgin hermaphrodites to constrain the presence of males and were conditioned to well-fed and ambient conditions for at least one generation before mothers were picked for the assays."}, "[2]": {"test_system": "C. elegans hermaphrodites and males", "assay": "Spot attraction assay", "format": "in vivo", "protocol": "The spot attraction assays were conducted according to a previously reported method (Pungaliya et al., PNAS 106:7708-13 (2009); Srinivasan et al., Nature 454:1115-18 (2008), which are hereby incorporated by reference in their entirety). For both C. elegans hermaphrodites and males, 50-60 worms were harvested daily at the fourth larval stage (L4) and stored segregatedly by sex at 20° C. overnight, to be used as young adults the following day. For the competition experiments, two conditions were used: 120 nM ascr#3 and 10 nM icas#3 (Condition 1), or 12 μM ascr#3 and 1 μM icas#3 (Condition 2) in water containing 10% ethanol. Aliquots were stored at −20° C. in 20 μL tubes. 10% ethanol in water was used as control.\nAttraction assays with hbas#3 were conducted as previously reported (Srinivasan et al., Nature 454:1115-18 (2008); Pungaliya et al., Proc. Natl. Acad. Sci. U.S.A. 106:7708-13 (2009), which are hereby incorporated by reference in their entirety). For the attraction assays, 50-60 hermaphrodite worms were harvested daily at the early fourth larval stage (L4) and stored at 20° C. overnight to be used as young adults the following day. Hbas#3 was dissolved in water containing 10% ethanol. Aliquots were stored at −20° C. in 20 μL tubes. 10% ethanol in water was used as control."}, "[3]": {"test_system": "C. elegans hermaphrodites", "assay": "Quadrant chemotaxis assay", "format": "in vivo", "settings": "see FIGS. 48A-B (spot attraction and quadrant chemotaxis assays); wild-type hermaphrodites", "protocol": "Chemotaxis to both non-indole and indole ascarosides was assessed on 10 cm four-quadrant petri plates (Wicks et al., Dev. Biol. 221:295-307 (2000), which is hereby incorporated by reference in its entirety). Each quadrant was separated from adjacent ones by plastic spacers (FIG. 1B). Pairs of opposite quadrants were filled with nematode growth medium (NGM) agar containing either indole ascarosides or non-indole ascarosides at different concentrations. Animals were washed gently in a S-basal buffer, placed in the center of a four-quadrant plate with ascarosides in alternating quadrants, and scored after 15 minutes and 30 minutes. A chemotaxis index was calculated as: (the number of animals on ascaroside quadrants minus the number of animals on buffer quadrants)/(total number of animals).\nChemotaxis to hbas#3 was assessed on 10 cm four-quadrant petri plates (Wicks et al., Dev. Biol. 221:295-307 (2000), which is hereby incorporated by reference in its entirety). Each quadrant was separated from adjacent ones by plastic spacers. Pairs of opposite quadrants were filled with nematode growth medium (NGM) agar containing different concentrations of hbas#3. Animals were washed gently in an S-basal buffer and placed in the center of a four-quadrant plate with ascarosides in alternating quadrants, and scored after 15 minutes and 30 minutes. A chemotaxis index was calculated as: (the number of animals on ascaroside quadrants minus the number of animals on buffer quadrants)/(total number of animals)."}, "[4]": {"test_system": "several of the tested nematode species", "assay": "Retention assay, several nematode species", "format": "in vivo", "settings": "1 nM, 1 μM and 1 mM tested", "protocol": "OP50 E. coli was grown on a standard 5 cm agar plate (made with standard Nematode Growth Medium). The bacterial lawn was 16 mm in diameter and was grown overnight at 20° C. before being used in trials. Two 4 mm spots (0.6 μL) were placed on opposite sides of the bacterial lawn (using a transparent template to guide spot placement), and several minutes elapsed for the liquid to settle in before placing nematodes down on the assay. Recording began immediately upon worm placement. 0.6 μL of the control was placed on one side of the lawn, and 0.6 μL of the experimental cue was placed on the other side of the lawn, changing the location of the cue throughout trials between left/right and top/bottom to avoid bias.\nNematodes were isolated by gender at the L4 stage the day before being used in trials as developed adults. Worms were evenly divided and placed at two points equidistant from the foci of the scoring region. Trials were recorded for 20 minutes, and frames were collected for analysis at 1 frame per second. Results were averaged from at least three different trials. For every nematode species in this study, a different total number of worms (using water in both scoring regions) was tested to determine the minimum number of worms necessary for consistent unbiased results over a 20 minute trial. The total number of worms used in the multiple species assays depended on that species' optimal parameters. 10 worms were used for P. redivivus males and females, 20 worms were used for C. elegans males and O. dolichuridae males, and 14 worms were used for S. glaseri males. The Automated Software was used to compare worm occupancy in each scoring region over time, and the Chemotaxis Index (Bargmann et al., Cell 74:515-27 (1993), which is hereby incorporated by reference in its entirety) was adapted to score preference or avoidance to each ascaroside.\nA video camera attached to the microscope produced a digital video stream, which was then analyzed. The ratio of the time the average worm spent in each region of interest was calculated for every trial. For ease of implementation, all worms in a single experiment were assumed to be roughly the same size. Thus worm pixels were counted instead of whole worms, allowing fractions of a worm in the region of interest to be taken into account. It also eliminated the need for a shape-based worm identification algorithm, and allowed each frame to be analyzed independently. A band-pass filter was applied to each frame to eliminate the effect of uneven lighting and also accentuate the worms against the background. The worm was then identified after thresholding the filtered image. Throughout each experiment, the locations and sizes of the regions of interest were known. Through the filtering described above, it is known which pixels are occupied by worms and which ones are not. Thus, the ratio of worm-pixels to all pixels inside the region of interest can be calculated to produce the worm-occupancy ratio. This calculation was done for every frame, giving a plot output of worm-occupancy ratio vs. time for each region."}, "C. elegans males": {"test_system": "C. elegans males", "assay": "Attraction assay (long-range, point source)", "format": "in vivo", "settings": "point source on 10 cm plate", "protocol": "10 cm standard chemotaxis plates were prepared (Bargmann et al., Cell 74:515-27 (1993), which is hereby incorporated by reference in its entirety) and stored at 4° C. until the day before use. Standard 1 cm-diameter copper pipes were sectioned into 1 cm-tall segments to use for the holding chambers. The females/hermaphrodites were isolated overnight, washed 3 times in M9 buffer, and then allowed to wander on a plate pre-conditioned with 50 uL of 1000× streptomycin for 2 hours to kill any bacteria that might produce a false positive attractant. The nematodes were then washed 3 times, and the supernatant from the last wash was placed in a copper chamber, as the control, 1 cm from the border of the 10 cm plate. The nematodes were suspended in M9 within the copper chamber, 1 cm from the border opposite the control chamber. After 6 hours, they were subsequently removed and replaced with 3 μL of 1M sodium azide. 100 C. elegans adult males were isolated overnight, washed several times in ddH2O, and placed at the center of the agar plate. After several hours, males paralyzed within 2 cm of each region were scored. The Chemotaxis Index (Bargmann et al., Cell 74:515-27 (1993), which is hereby incorporated by reference in its entirety) was then used to score male chemotaxis to either point source."}, "[5]": {"test_system": "C. elegans hermaphrodites and males", "settings": "cited from earlier work"}, "C. elegans": {"test_system": "C. elegans", "settings": "shown previously; cited from earlier work"}, "[6]": {"settings": "synthetic samples, first assayed at 1 μM"}, "[7]": {"settings": "literature (Pungaliya 2009; Srinivasan 2008)"}}, "note": "Entries after “also recorded” stand apart in the source; their conditions may differ."}
{"smiles": "C[C@H](CCC(=O)O)O[C@@H]1O[C@@H](C)[C@H](O)C[C@@H]1O", "note": "[part#9, (R)-4-(((2R,3S,5R,6S)-3,5-dihydroxy-6-methyltetrahydro-2H-pyran-2-yl)oxy)pentanoic acid]", "values": [{"measurement": "dauer induction", "setting": "P. pacificus", "result": "weaker dauer inducation"}, {"measurement": "induction of the eurystomatous mouth form", "setting": "[1]; [6]", "result": "inactive"}]}
{"smiles": "C[C@H](CCCC/C=C/C(=O)O)O[C@@H]1O[C@@H](C)[C@H](OC(=O)c2ccc(O)cc2)C[C@H]1O", "note": "[hbas#3, (8R)-(3′R-Hydroxy-5′R-(4-hydroxybenzoyloxy)-6′S-methyl-(2H)-tetrahydropyran-2′-yloxy)non-(2E)-enoic acid]", "values": [{"measurement": "attraction in the spot attraction assay", "setting": "[2]; wild-type (N2) hermaphrodites, dose dependent manner", "result": "attracted"}, {"measurement": "lowest concentration with strong attraction of C. elegans (as low as)", "setting": "[3]", "result": 10, "unit": "femtomolar"}]}
{"smiles": "C[C@H](CCC(=O)O)O[C@@H]1O[C@@H](C)[C@H](OC(=O)[C@H](C)CNC(N)=O)C[C@H]1OC(=O)CCCCO[C@@H]1O[C@@H](C)[C@H](O)C[C@H]1O", "note": "[ubas#1, (R)-4-(((2R,3R,5R,6S)-3-((5-(((2R,3R,5R,6S)-3,5-dihydroxy-6-methyltetrahydro-2H-pyran-2-yl)oxy)pentanoyl)oxy)-6-methyl-5-(((R)-2-methyl-3-ureidopropanoyl)oxy)tetrahydro-2H-pyran-2-yl)oxy)pentanoic acid]", "values": [{"measurement": "induction of the eurystomatous mouth form", "setting": "[1]; [6]", "result": "inactive"}]}
{"smiles": "C[C@H](CC/C=C/C(=O)O)O[C@@H]1O[C@@H](C)[C@H](O)C[C@H]1O", "note": "[ascr#7]", "values": [{"measurement": "preference for areas conditioned by the ascaroside", "setting": "[4]", "result": "preferred"}]}
{"smiles": "CC1O[C@@H](O[C@H](C)CCCC/C=C/C(=O)O)[C@@H](O)C[C@H]1O", "note": "(stereo partly shown) [ascr#3]", "values": [{"measurement": "preference for areas conditioned by the ascaroside", "setting": "[4]", "result": "preferred"}, {"measurement": "lowest amount eliciting male attraction (as low as)", "setting": "C. elegans males", "result": 5, "unit": "femtomol"}, {"measurement": "male attraction from a distance / chemotaxis towards a point source", "setting": "C. elegans males", "result": "chemotax towards"}, {"measurement": "most active amount for attraction in C. elegans", "setting": "[5]; from 1 μM concentration, previous study (Srinivasan 2008)", "result": "~1", "unit": "pmol"}, {"measurement": "response of social and solitary hermaphrodites", "setting": "[5]; high dauer-inducing concentrations, previous studies", "result": "strongly deter"}, {"measurement": "attraction of males", "setting": "[5]; [7]", "result": "strongly attracts males"}, {"measurement": "response of hermaphrodites", "setting": "[5]; [7]", "result": "repels hermaphrodites"}, {"measurement": "promotion of dauer entry", "setting": "C. elegans", "result": "individually promote dauer entry"}]}
{"smiles": "C[C@H](CCCCC(=O)O[C@@H]1C[C@@H](O)[C@H](O[C@H](C)CCCCC(=O)O)O[C@H]1C)O[C@@H]1O[C@@H](C)[C@H](O)C[C@H]1O", "note": "[dasc#1, (R)-6-(((2R,3R,5R,6S)-5-(((R)-6-(((2R,3R,5R,6S)-3,5-dihydroxy-6-methyltetrahydro-2H-pyran-2-yl)oxy)heptanoyl)oxy)-3-hydroxy-6-methyltetrahydro-2H-pyran-2-yl)oxy)heptanoic acid]", "values": [{"measurement": "dauer induction", "setting": "P. pacificus", "result": "inactive in the dauer formation assay"}, {"measurement": "induction of the eurystomatous mouth form", "setting": "[1]; [6]", "result": "regulates adult morphology; also recorded: strongly induce the eurystomatous mouth form"}]}
{"smiles": "C[C@H](CCC(=O)O[C@@H](CNC(=O)CCC(=O)O)c1ccccc1)O[C@@H]1O[C@@H](C)[C@H](O)C[C@H]1O", "note": "[pasc#9, 4-(((R)-2-(((R)-4-(((2R,3R,5R,6S)-3,5-dihydroxy-6-methyltetrahydro-2H-pyran-2-yl)oxy)pentanoyl)oxy)-2-phenylethyl)amino)-4-oxobutanoic acid]", "values": [{"measurement": "induction of the eurystomatous mouth form", "setting": "[1]; high concentrations", "result": "weaker induction of the eurystomatous mouth form"}]}
{"smiles": "C[C@H](CCCCC(=O)O)O[C@@H]1O[C@@H](C)[C@H](OC(=O)c2c[nH]c3ccccc23)C[C@H]1O", "note": "[icas#1]", "values": [{"measurement": "attraction in the spot attraction assay", "setting": "[2]; 1 pmol, N2 hermaphrodites and him-5 males", "result": "attractive to both C. elegans sexes"}, {"measurement": "attraction in the spot attraction assay", "setting": "[2]; high concentrations, males and hermaphrodites", "result": "attracted both males and hermaphrodites"}]}
